According to patent US6806285B1, “5-Hydroxyl indole derivatives for treating glaucoma” (Alcon, Inc., priority 2000, dated 2004):

Tests used:
[1] = Solution stability, accelerated stress test; assay type: physicochemical; settings: 14 days; for Predicted Shelf Life: 25° C., loss of 10% compound (T90), extrapolated from 75° C., pH 5 0.025 M sodium citrate buffer, HPLC
Method: The solution stability of the example compounds were assessed using an accelerated stress test. The compound was dissolved in pH 5, 0.025 M sodium citrate buffer (5˜15 μg/mL). In duplicate, 2 mL of each solution in a glass vial was heated at 75° C. for 14 days. Samples were analyzed periodically using HPLC and % degradation was calculated for the sample. The predicted shelf life (25° C.) was based on the loss of 10% compound (T90) and the fact that the rate of degradation for a first order reaction decreased 50% for every 10° C. drop in temperature.

[2] = tested on: hypertensive cynomolgus monkeys; settings: dose 250 μg, cited from earlier work

SMILES | Predicted Shelf Life [1] | Stability relative to the parent compound α-methylserotonin (oxidative degradation and ester hydrolysis) ([1]; stress conditions: pH 5 citrate buffer, 75° C.) | Percent IOP Reduction ± SEM, 1 hour after dose [2] | Percent IOP Reduction ± SEM, 3 hours after dose [2] | Percent IOP Reduction ± SEM, 6 hours after dose [2]
CCC(=O)Oc1ccc2[nH]cc(CC(C)N)c2c1 (stereo not drawn) [Example 1, Propionic acid 3-(2-aminopropyl)1H-indol-5-yl ester] | 1.32 months | did not provide an increase in the stability of the parent compound |  |  | 
CC(N)Cc1c[nH]c2ccc(OC(=O)C(C)(C)C)cc12 (stereo not drawn) [Example 3, 2,2-Dimethyl-propionic acid 3-(2-aminopropyl)-1H-indol-5yl ester] | 11.3 months |  |  |  | 
CC(N)Cc1c[nH]c2ccc(OC(=O)C(C)C)cc12 (stereo not drawn) [Example 2, Isobutyric acid 3-(2-aminopropyl)-1H-indol-5yl ester] | 3.36 months |  |  |  | 
NCCc1c[nH]c2ccc(O)cc12 [Serotonin] |  |  | 13.3 ± 5.31% | 18.0 ± 5.12% | 2.0 ± 7.39%
CC(N)Cc1c[nH]c2ccc(OC(=O)C3CC3)cc12 (stereo not drawn) [Example 4, Cyclopropanecarboxylic acid 3-(2-aminopropyl)-1H-indol-5yl ester] | 5.81 months |  |  |  | 
CC(N)Cc1c[nH]c2ccc(O)cc12 (stereo not drawn) [α-methylserotonin, 3-(2-aminopropyl)-1H-indol-5-ol] | 2.6 months |  | 14.2 ± 4.39% | 25.8 ± 5.16% | 30.8 ± 7.72%
